Values quoted from earlier work in patent US20060029556A1, “Aqueous-alcoholic depigmenting gels” (GALDERMA RESEARCH & DEVELOPMENT, S.N.C., priority 2002, published 2006).
Read-outs that look alike come from different tables or passages of the source.

Oc1ccc(O)cc1 [hydroquinone]
incidence of irritation (hydroquinone concentration 10%): relatively high | incidence of irritation (hydroquinone concentration of 2%): virtually nonexistent | incidence of irritation (hydroquinone preparations with a 5% dose): reduces greatly
